Source: patent publication US8088819B2, “Derivatives of substituted 3-phenyl-1-(phenylthienyl)propan-1-ones and of 3-phenyl-1-(phenylfuranyl) propan-1-ones, preparation and use” (priority 2006, dated 2012)

Assays:
murine myocytes (C2C12) = assay: β-oxidation of fatty acids in murine myocytes (tritiated palmitate); format: cell-based; conditions: 24 h pretreatment
Source text: The more the induction of the β-oxidation of fatty acids is increased, the greater the stimulating action of the compound according to the invention on metabolism in the muscle cells.
The objective is to measure the amount of tritiated water formed during the mitochondrial oxidation of ^3H-labeled fatty acids.
The C2C12 murine cell line (obtained from ECACC) is cultivated in DMEM medium (Gibco; 41965-039) with addition of 1% L-glutamine (Gibco; 25030), 1% penicillin/streptomycin (VWR; BWSTL0022/100) and 10% decomplemented fetal calf serum (FCS. Gibco; 10270-106).
The cells are seeded on 48-well plates at a density of 25·10^3 cells/well. At confluence, the medium is replaced with a differentiating medium (basal medium with addition of 2% of horse serum (Gibco; 26050-088)), then incubated at 37° C. and 5% CO2 for 4 days in order to differentiate them to myocytes.
After 4 days of differentiation, the cells are treated with the compounds according to the invention added to the culture medium for differentiation. Compound 2 was tested by dose effect from 0.01 to 1 μM, and the others were tested at a dose of 1 μM. The compounds according to the invention are dissolved in dimethylsulfoxide (DMSO, Sigma; D5879). The cells are treated for 24 h at 37° C., 5% CO2. The effect of the compounds according to the invention is compared with the effect of DMSO alone. […]
Secondly, 50 μL of precipitated supernatant is evaporated for 2 days, then the residual tritium is measured in order to evaluate the amount of tritiated palmitate not converted to water.
A standard range is prepared by successive dilutions of the tritiated palmitate/BSA complex in order to determine the amount of palmitate converted to water. For each time of the kinetics, 1 h, 2 h and 3 h, the amount in nanomoles of oxidized palmitate is calculated by linear regression. The areas under the curve are determined for each set of conditions and the results are normalized with DMSO. […]

[1] = system: target genes of PPARδ in murine myocytes (C2C12); assay: Expression of target genes of PPARδ (PDK4, CPT1b, UCP2, UCP3) in murine myocytes, quantitative RT-PCR; format: cell-based; conditions: murine myocytes in vitro
Source text: It is established that regulation of the expression of these genes is directly controlled by PPARδ in this cell type. The more the expression of the genes is increased, the greater the stimulating action of the compound according to the invention on metabolism in the muscle cells.
Cells from the murine cell line C2C12 (obtained from ECACC) are cultivated in DMEM medium (Gibco; 41965-039) with addition of 1% L-glutamine (Gibco; 25030), 1% of penicillin/streptomycin (VWR; BWSTL0022/100) and 10% decomplemented fetal calf serum (FCS. Gibco; 10270-106).
The cells are seeded on 24-well plates at a density of 50·10^3 cells/well. At confluence, the medium is replaced with a differentiating medium (basal medium with addition of 2% of horse serum (Gibco; 26050-088)), then incubated at 37° C. and 5% CO2 for 4 days in order to differentiate them to myocytes.
After 5 days of differentiation, the cells are put in a deprivation medium (basal medium without serum) for 6 hours. The cells are then treated with the compounds according to the invention in the deprivation medium. Compounds 2, 4, 7, 11, 39, 40, 46, 49 and 72 were in dose effect, corresponding to 1×, 10× and 100× their EC50 PPARδ. The compounds according to the invention were dissolved in dimethylsulfoxide (DMSO, Sigma; D5879). The cells were treated for 24 h at 37° C., 5% CO2. The effect of the compounds according to the invention was compared with the effect of DMSO alone.
After treatment, the total RNA is extracted from the cells using the NucleoSpine® 96 RNA kit (Macherey Nagel, Hoerdt, France) following the manufacturer's instructions.
1 μg of total RNA (quantified based on the UV spectrophotometer reading) was then reverse-transcribed to complementary DNA by reaction for 1 hour at 37° C. in a total volume of 30 μl containing buffer 1× (Invitrogen), 1.5 mM of DTT, 0.18 mM of dNTPs (Promega), 200 ng of pdN6 (Amersham), 30 U of RNase inhibitor (Promega) and 1 μl of MMLV-RT (Invitrogen).
The quantitative PCR experiments were carried out using the MyiQ Single-Color Real-Time PCR Detection System (Biorad, Marnes-la-Coquette, France) and were performed using the iQ SYBR Green Supermix kit following the supplier's recommendations, in 96-well plates, on 5 μl of diluted reverse-transcription reaction mixtures with a hybridization temperature of 60° C. Primer pairs specific to the PDK4, CPT1b, UCP2 and UCP3 genes under investigation were used:
The amount of fluorescence emitted is directly proportional to the amount of complementary DNA present at the start of the reaction and amplified during PCR. For each target investigated, a range is produced by successive dilutions of a pool constituted of a few microliters of various reverse-transcription reaction mixtures. The relative expression levels of each target are thus determined using the efficacy curves obtained with the points in the range.
The levels of expression of the genes of interest were then normalized relative to the level of expression of the reference gene 36B4 (whose specific primers are: sense primer: 5′-[…]-3′ (SEQ ID No. 19) and antisense primer: 5′-[…]-3′ (SEQ ID No. 20)). The induction factor, i.e. the ratio of the relative signal (induced by the compound according to the invention) to the mean of the relative values of the control group, was then calculated. The higher this factor, the greater the activating character of the compounds according to the invention with respect to gene expression. The final result is represented as the mean of the induction values in each experimental group.

SMILES | melting point [°C] | β-oxidation of fatty acids in murine myocytes (murine myocytes (C2C12); in dose effect starting from 0.01 μM) | expression of genes involved in carbohydrate and lipid metabolism and in thermoregulation [1] | β-oxidation of fatty acids in murine myocytes (murine myocytes (C2C12); at 1 μm)
CC(C)(Oc1ccc(CCC(=O)c2ccc(-c3ccc(C(F)(F)F)cc3)s2)c(Cl)c1Cl)C(=O)O [Compound 2, 2-(2,3-dichloro-4-(3-oxo-3-(5-(4-(trifluoromethyl)phenyl)thien-2-yl)propyl)phenoxy)-2-methylpropanoic acid] | 153 to 154 | significant increase | stimulating effects | 
CC(C)(Oc1ccc(CCC(O)c2ccc(-c3ccc(C(F)(F)F)cc3)s2)c(Cl)c1Cl)C(=O)O (centres unmarked) [Compound 4, 2-(2,3-dichloro-4-(3-hydroxy-3-(5-(4-(trifluoromethyl)phenyl)thien-2-yl)propyl)phenoxy)-2-methylpropanoic acid] | 54 to 56 |  | stimulating effects | significant increase
CC(C)(Oc1ccc(CCC(OCc2ccccc2)c2ccc(-c3ccc(C(F)(F)F)cc3)s2)c(Cl)c1Cl)C(=O)O (centres unmarked) [Compound 7, 2-(4-(3-(benzyloxy)-3-(5-(4-(trifluoromethyl)phenyl)thien-2-yl)propyl)-2,3-dichlorophenoxy)-2-methylpropanoic acid] | 46 to 48 |  | stimulating effects | 
CC(C)(Oc1ccc(CCC(=O)c2cc(-c3ccc(C(F)(F)F)cc3)cs2)c(Cl)c1Cl)C(=O)O [Compound 11, 2-(2,3-dichloro-4-(3-oxo-3-(4-(4-(trifluoromethyl)phenyl)thien-2-yl)propyl)phenoxy)-2-methylpropanoic acid] | 99 to 101 |  | stimulating effects | significant increase
